Values of other authors in patent publication US4197292A, “Novel amylase inhibitors” (Taisho Pharmaceutical Co., priority 1978, dated 1980).

Test system: β-glucosidase
Conditions: prior art inhibitor

OC[C@H]1NC(O)[C@H](O)[C@@H](O)[C@@H]1O (stereo partly shown) [Nojirimycin]
inhibitory activity to β-glucosidase (in words): has inhibitory activity
